In assay [1] the test system is splenocytes. The experiment in a line: Anti-CD3-activated splenocyte proliferation in co-culture with MSCs. In kind it is cell-based, mouse. The method, then:
FIGS. 9A, 9B, 9C, 9D, 9E, 9F and 9G. […] Cloned MSCs were first treated with the indicated combinations of recombinant cytokines IFNγ, TNFα, IL-17A (2 ng/ml each) for 12 hr, then cocultured with CD4^+ T cell blasts at a 1:20 ratio (MSC:T cells), and proliferation was assessed by 3H-thymidine incorporation after an additional 12 hr. (FIG. 9B). The mRNA expression of IL-17 receptor family members in MSCs or Raw 264.7 (Macrophages) were examined by RT-PCR. NC: No RT. (FIG. 9C). Surface expression of IL-17RA was detected by immunofluoresence or flow cytometry in cloned MSCs. (FIGS. 9D and 9E). MSCs were first treated with IFNγ and TNFα with or without IL-17A (10 ng/ml), IFNγ and TNFα were supplemented at different cytokine concentrations, for 12 hr, and then cocultured with CD4^+ T cell blasts (FIG. 9D) or T cell hybridoma A1.1 cells (FIG. 9E) at a ratio of 1:20 for 12 hr. T cell proliferation was measured by 3H-Tdr incorporation. (FIG. 9F). MSCs were first treated with IFNγ and TNFα (2 ng/ml) with graded concentrations of IL-17A, for 12 hr, and then cocultured with T cell hybridoma A1.1 cells at a ratio of 1:10 for 12 hr. T cell proliferation was measured by 3H-thymidine incorporation. (FIG. 9G). MSCs were cocultured with fresh C57BL/6 splenocytes plus anti-CD3, anti-CD28, and antibodies against IL-17A, at a 1:20 or 1:40 ratio (MSCs:splenocytes), for 48 hr, and then cell proliferation was assessed by 3H-thymidine incorporation. Proliferation values represent means±SEM of three wells from a representative of three experiments.
To examine the possibility that cytokines induce the immunosuppressive capacity of MSCs, these culture conditions were reproduced by combining MSCs and fresh splenocytes at graded ratios in the presence of anti-CD3. […] The immunosuppressive capacity of MSC clones generated from different mouse strains was also examined.
To identify the mechanism through which immunosuppression by cytokine-exposed MSCs is effected, the response of anti-CD3-activated splenocytes co-cultured with MSCs (1:20, MSC:splenocytes) in a […] system was examined in various configurations.
Nitric oxide (NO) at high concentrations is known to inhibit T cell responses. It diffuses quickly from its source, but the concentration of the active form drops off within about 100 μm.
Proliferation assay—To assay T cell proliferation, 0.5 μCi of 3H-thymidine was added to each well of 96-well plates 6 hr before termination of the cultures by freezing. Plates were then thawed, cells were harvested, and incorporated 3H-Tdr was assessed with a Wallac Microbeta scintillation counter (Perkin-Elmer, Waltham, MA).

Assay [2] has as its system 355 B-cell lymphoma cell line. Description: 355 B-cell lymphoma survival model. In kind it is in vivo. To be noted: 0.1 mg/mouse i.p. on day 0, 2, 4, 8, 12, 16, 20, 24, and 28. The method, then: FIG. 4. is a graph showing that lymphoma stromal cells (LSCs) promote lymphoma development in a NO-dependent manner. 355 B-cell lymphoma cell line (C3H-gld/gld background, 0.5×10^6 cells/mouse) was co-injected with gld/gld mice-derived lymphoma stromal cells (C3H background, P5, 0.25×10^6 cells/mouse) by tail-vein i.v. on day 0.1400 W (NOS inhibitor, 0.1 mg/mouse) was injected on day 0, 2, 4, 8, 12, 16, 20, 24, and 28 by i.p. Mice survival was recorded when mice were moribund.
To examine the effect of lymphoma stromal cells on tumor growth, 355 B-cell lymphoma cell line (C3H-gld/gld background, 0.5×10^6 cells/mouse) was co-injected with gld/gld mice-derived lymphoma stromal cells (C3H background, P5, 0.25×10^6 cells/mouse).

For assay [3], the system named is iNOS. The experiment in a line: iNOS protein and NO production in MSCs with type I IFN or FGF-2. In kind it is cell-based, mouse. The settings on record: induced by IFN γ+TNF α or IFN γ+IL-β. The source says: FIGS. 17A, 17B, 17C and 17D. Type I interferons and FGF-2 down-regulate the immunosuppressive effect of MSCs through attenuation NO production. […] (FIG. 17C) FGF-2 (FGF B) inhibited the NO production which was induced by IFN γ+TNF α or IFN γ+IL-β in MSCs, reflected by nitrate content in the culture supernatants.

Turning to `CC(=N)NCc1cccc(CN)c1` [1400 W], the “splenocyte proliferation in MSC co-culture with iNOS inhibitor” value in assay [1] (MSCs + splenocytes + anti-CD3) is listed as “same effect”. The “effect on stromal cell-enhanced mortality” value in assay [2] is “significantly reverted the effect”.

B1: FGF-2: fibroblast growth factor (protein, UniProt P15655 10-154, looked up)
Fibroblast growth factor 2: PALPEDGGAAFPPGHFKDPKRLYCKNGGFFLRIHPDGRVDGVREKSDPHVKLQLQAEERGVVSIKGVCANRYLAMKEDGRLLASKCVTEECFFFERLESNNYNTYRSRKYSSWYVALKRTGQYKLGSKTGPGQKAILFLPMSAKS
As for B1, the “MSC-mediated immunosuppression in MSC+splenocyte+anti-CD3 system” value in assay [1] is “significantly reduced”. In addition, the “NO production in MSCs (nitrate content in culture supernatants)” value in assay [3] was “inhibited”.

(Values after patent US12156889B2, “Methods of administering mesenchymal stem cells activated by cytokines for enhancing immunosuppression” (Rutgers, The State University of New Jersey, priority 2012, dated 2024).)
